# Test system: HEK293-STF3A cells
# Experiment: STF3A assay (luciferase reporter)
# Assay type: cell-based
# Conditions: Homo sapiens, 24 h, 1 day of treatment
# Protocol: HEK293-STF cell line was modified from Human embryonic kidney cell line HEK293 transfected with the STF reporter. HEK293-STF3A cell line was further modified from HEK293-STF cell line to express Wnt3A. This cell line was used to identify compounds that regulate either early or late signalling components of the Wnt pathway. L-Wnt3A (ATCC, #CRL-2647) cell line was used for providing Wnt3A conditioned media. The three cell lines were grown in DMEM (Dulbecco's Modified Eagle Medium) with 10% FBS (fetal bovine serum) incubated in 37° C. with 5% CO2. 2×10^4 HEK293-STF3A cells in 75 μl culture media were seeded in each well of white 96 well plates (Greiner #655098) and incubated overnight at 37° C. 25 μl serially diluted compound was added to the cells to give final concentration of 50 μM to 1.5 nM. After 1 day of treatment, 100 μl of Steady-Glo® Luciferase Assay reagent (#E2520, Promega) was added to each well and incubated for 10 minutes at room temperature. Luminescence was measured using Tecan Safire2® plate reader.
row,Compound,IC50 [nM]
1,"COC(=O)c1ccc(-c2ccc(NC(=O)Cn3cnc4c3c(=O)n(C)c(=O)n4C)cc2)cc1 [Compound 38, methyl 4′-(2-(1,3-dimethyl-2,6-dioxo-2,3-dihydro-1H-purin-7(6H)-yl)acetamido)biphenyl-4-carboxylate]",< 100
2,"Cn1c(=O)c2c(ncn2CC(=O)Nc2cc(-c3ccccc3)no2)n(C)c1=O [Compound 39, 2-(1,3-dimethyl-2,6-dioxo-2,3-dihydro-1H-purin-7(6H)-yl)-N-(3-phenylisoxazol-5-yl)acetamide]",> 10000
3,"Cn1c(=O)c2c(ncn2CC(=O)Nc2ccc(-c3cnco3)cc2)n(C)c1=O [Compound 40, 2-(1,3-dimethyl-2,6-dioxo-2,3-dihydro-1H-purin-7(6H)-yl)-N-(4-(oxazol-5-yl)phenyl)acetamide]",< 1000
4,"Cn1c(=O)c2c(ncn2CC(=O)Nc2ccc(-c3nccs3)cn2)n(C)c1=O [Compound 41, 2-(1,3-dimethyl-2,6-dioxo-2,3-dihydro-1H-purin-7(6H)-yl)-N-(5-(thiazol-2-yl)pyridin-2-yl)acetamide]",< 100
5,"Cn1c(=O)c2c(ncn2CC(=O)Nc2ccc(N3CCNCC3)cn2)n(C)c1=O [Compound 42, 2-(1,3-dimethyl-2,6-dioxo-2,3-dihydro-1H-purin-7(6H)-yl)-N-(5-(piperazin-1-yl)pyridin-2-yl)acetamide]",> 10000
6,"C[C@H]1CNCCN1c1ccc(NC(=O)Cn2cnc3c2c(=O)n(C)c(=O)n3C)cc1 [Compound 43, (S)-2-(1,3-dimethyl-2,6-dioxo-2,3-dihydro-1H-purin-7(6H)-yl)-N-(4-(2-methylpiperazin-1-yl)phenyl)acetamide]",> 10000
7,"C[C@@H]1CNCCN1c1ccc(NC(=O)Cn2cnc3c2c(=O)n(C)c(=O)n3C)cc1 [Compound 44, (R)-2-(1,3-dimethyl-2,6-dioxo-2,3-dihydro-1H-purin-7(6H)-yl)-N-(4-(2-methylpiperazin-1-yl)phenyl)acetamide]",> 10000
8,"Cn1c(=O)c2c(ncn2CC(=O)Nc2ccc(N3CCN(C(=O)c4ccccc4)CC3)cn2)n(C)c1=O [Compound 45, N-(5-(4-benzoylpiperazin-1-yl)pyridin-2-yl)-2-(1,3-dimethyl-2,6-dioxo-2,3-dihydro-1H-purin-7(6H)-yl)acetamide]",< 100
9,"C[C@H]1CN(C(=O)c2ccccc2)CCN1c1ccc(NC(=O)Cn2cnc3c2c(=O)n(C)c(=O)n3C)cc1 [Compound 46, (S)—N-(4-(4-benzoyl-2-methylpiperazin-1-yl)phenyl)-2-(1,3-dimethyl-2,6-dioxo-2,3-dihydro-1H-purin-7(6H)-yl)acetamide]",< 1000
10,"Cn1c(=O)c2c(ncn2CC(=O)Nc2ccc(N3CCN(C(=O)CC(C)(C)C)CC3)cn2)n(C)c1=O [Compound 47, 2-(1,3-dimethyl-2,6-dioxo-2,3-dihydro-1H-purin-7(6H)-yl)-N-(5-(4-(3,3-dimethylbutanoyl)piperazin-1-yl)pyridin-2-yl)acetamide]",< 1000
11,CC(=O)N1CCN(c2ccc(NC(=O)Cn3cnc4c3c(=O)n(C)c(=O)n4C)nc2)CC1 [Compound 48],< 1000
12,"Cn1c(=O)c2c(ncn2CC(=O)Nc2ccc(N3CCN(C(=O)c4ccc(Cl)cc4)CC3)cn2)n(C)c1=O [Compound 49, N-(5-(4-(4-chlorobenzoyl)piperazin-1-yl)pyridin-2-yl)-2-(1,3-dimethyl-2,6-dioxo-2,3-dihydro-1H-purin-7(6H)-yl)acetamide]",< 1000
13,"Cn1c(=O)c2c(ncn2CC(=O)Nc2ccc(N3CCN(C(=O)c4cccs4)CC3)cn2)n(C)c1=O [Compound 50, 2-(1,3-dimethyl-2,6-dioxo-2,3-dihydro-1H-purin-7(6H)-yl)-N-(5-(4-(thiophene-2-carbonyl)piperazin-1-yl)pyridin-2-yl)acetamide]",< 1000
14,"Cn1c(=O)c2c(ncn2CC(=O)Nc2ccc(N3CCN(C(=O)c4cccc(F)c4)CC3)cn2)n(C)c1=O [Compound 51, 2-(1,3-dimethyl-2,6-dioxo-2,3-dihydro-1H-purin-7(6H)-yl)-N-(5-(4-(3-fluorobenzoyl)piperazin-1-yl)pyridin-2-yl)acetamide]",< 1000
15,"Cn1c(=O)c2c(ncn2CC(=O)Nc2ccc(N3CCN(C(=O)c4ccc(F)cc4)CC3)cn2)n(C)c1=O [Compound 52, 2-(1,3-dimethyl-2,6-dioxo-2,3-dihydro-1H-purin-7(6H)-yl)-N-(5-(4-(4-fluorobenzoyl)piperazin-1-yl)pyridin-2-yl)acetamide]",< 1000
16,"Cn1c(=O)c2c(ncn2CC(=O)Nc2ccc(N3CCN(Cc4ccccc4)CC3)cn2)n(C)c1=O [Compound 53, N-(5-(4-benzylpiperazin-1-yl)pyridin-2-yl)-2-(1,3-dimethyl-2,6-dioxo-2,3-dihydro-1H-purin-7(6H)-yl)acetamide]",< 100
17,"Cn1c(=O)c2c(ncn2CC(=O)Nc2ccc(N3CCN(Cc4cc(F)cc(F)c4)CC3)cn2)n(C)c1=O [Compound 54, N-(5-(4-(3,5-difluorobenzyl)piperazin-1-yl)pyridin-2-yl)-2-(1,3-dimethyl-2,6-dioxo-2,3-dihydro-1H-purin-7(6H)-yl)acetamide]",< 100
18,"Cn1c(=O)c2c(ncn2CC(=O)Nc2ccc(N3CCN(Cc4ccccc4F)CC3)cn2)n(C)c1=O [Compound 55, 2-(1,3-dimethyl-2,6-dioxo-2,3-dihydro-1H-purin-7(6H)-yl)-N-(5-(4-(2-fluorobenzyl)piperazin-1-yl)pyridin-2-yl)acetamide]",< 5000
19,"Cn1c(=O)c2c(ncn2CC(=O)Nc2ccc(N3CCN(Cc4ccc(F)cc4)CC3)cn2)n(C)c1=O [Compound 56, 2-(1,3-dimethyl-2,6-dioxo-2,3-dihydro-1H-purin-7(6H)-yl)-N-(5-(4-(4-fluorobenzyl)piperazin-1-yl)pyridin-2-yl)acetamide]",< 1000
20,"Cn1c(=O)c2c(ncn2CC(=O)Nc2ccc(N3CCN(Cc4cccc(F)c4)CC3)cn2)n(C)c1=O [Compound 57, 2-(1,3-dimethyl-2,6-dioxo-2,3-dihydro-1H-purin-7(6H)-yl)-N-(5-(4-(3-fluorobenzyl)piperazin-1-yl)pyridin-2-yl)acetamide]",< 100
21,"C[C@H](C(=O)Nc1ccc(-c2ccsc2)cc1)n1cnc2c1c(=O)n(C)c(=O)n2C [Compound 58, (R)-2-(1,3-dimethyl-2,6-dioxo-2,3-dihydro-1H-purin-7(6H)-yl)-N-(4-(thiophen-3-yl)phenyl)propanamide]",> 10000
22,"C[C@@H](C(=O)Nc1ccc(-c2ccsc2)cc1)n1cnc2c1c(=O)n(C)c(=O)n2C [Compound 59, (S)-2-(1,3-dimethyl-2,6-dioxo-2,3-dihydro-1H-purin-7(6H)-yl)-N-(4-(thiophen-3-yl)phenyl)propanamide]",< 100
23,"Cn1c(=O)c2c(ncn2C(C)(C)C(=O)Nc2ccc(-c3ccsc3)cc2)n(C)c1=O [Compound 60, 2-(1,3-dimethyl-2,6-dioxo-2,3-dihydro-1H-purin-7(6H)-yl)-2-methyl-N-(4-(thiophen-3-yl)phenyl)propanamide]",< 1000
24,"CC(C(=O)Nc1ccc(-c2ccsc2)cc1)n1cnc2c1c(=O)n(C)c(=O)n2C (stereo not shown) [Compound 61, 2-(1,3-dimethyl-2,6-dioxo-2,3-dihydro-1H-purin-7(6H)-yl)-N-(4-(thiophen-3-yl)phenyl)propanamide]",< 100
25,"CC(C(=O)Nc1ccc(-c2ccccc2)cc1)n1cnc2c1c(=O)n(C)c(=O)n2C (stereo not shown) [Compound 62, N-(biphenyl-4-yl)-2-(1,3-dimethyl-2,6-dioxo-2,3-dihydro-1H-purin-7(6H)-yl)propanamide]",< 100
